{"source": "patent US11903951B2", "about": "“Nasal pharmaceutical compositions with a porous excipient” (M et P Pharma AG, priority 2016, dated 2024)", "key": {"[1]": {"assay": "Time for complete dissolving of the maximally soluble amount of testosterone in different oils", "conditions": "vortex mixer and shaker at 1000 rpm", "procedure": "The adsorption ability of the SYLOID® particles was investigated by mixing SYLOID® 244FP, XDP3050, and XDP6035 with castor oil, linalool, TRANSCUTOL®, and CAPRYOL™. The maximally soluble amount of testosterone (under the conditions tested) was dissolved in 2.5 g of each oil using a vortex mixer and shaker at 1000 rpm."}, "[2]": {"assay": "Solubility of testosterone in different oils", "assay_type": "physicochemical"}}}
{"smiles": "C[C@]12CC[C@H]3[C@@H](CCC4=CC(=O)CC[C@@]43C)[C@@H]1CC[C@@H]2O", "note": "[testosterone]", "values": [{"measurement": "Time of solubility (complete dissolving)", "setting": "[1]; 0.10 g testosterone in 2.5 g castor oil", "result": ">300", "unit": "min"}, {"measurement": "Time of solubility (complete dissolving)", "setting": "[1]; 0.15 g testosterone in 2.5 g CAPRYOL", "result": "~60", "unit": "min"}, {"measurement": "Time of solubility (complete dissolving)", "setting": "[1]; 0.16 g testosterone in 2.5 g TRANSCUTOL", "result": "~5", "unit": "min"}, {"measurement": "Time of solubility (complete dissolving)", "setting": "[1]; 0.31 g testosterone in 2.5 g linalool", "result": "15 to 20", "unit": "min"}, {"measurement": "Solubility from oil", "setting": "[2]; CAPRYOL PGMC", "result": 6.0, "unit": "%"}, {"measurement": "Solubility from oil", "setting": "[2]; TRANSCUTOL HP", "result": 6.5, "unit": "%"}, {"measurement": "Solubility from oil", "setting": "[2]; linalool", "result": 12.5, "unit": "%"}]}
